Results on one substance are retold here after patent US20170216277A1, “[…] USE OF […] […] EFFECTS” (TREVI THERAPEUTICS, INC., priority 2016, published 2017).

The nature of series [1]: Serum sodium, TR01, healthy subjects (Cohort 2). The series is classed as in vivo, human.
Series [2] in a line: Serum sodium (pre-dialysis), TR01, hemodialysis patients (Cohort 1). The series is classed as in vivo, human.
The nature of series [3]: Heart rate, TR01, healthy subjects. The series is classed as in vivo, human.
Experimental: (§1) The presence and extent of a possible aquaretic effect was evaluated by measuring urine output (healthy subjects only) and serum sodium as well as blood pressure and heart rate, as markers of potential volume depletion.
(§2) In the dialysis patients, all vital sign measurements and blood samples were collected pre-dialysis. On days of study drug administration, vital signs were measured at 0 (prior to the morning dose), 1.5, 4.5, and 8 hours after the morning dose and 2 hours after the evening meal, coinciding with administration of the PM dose. Blood pressure was also measured at 6 and 10 hours post dinner. On Day −1 (pre-treatment) vital sign measurements were obtained in the morning and evening at approximately the same time that study drug was administered on subsequent treatment days.
(§3) Blood pressure and heart rate were measured at multiple time points on Days −1 through 14 or 17.
The nature of series [4]: Heart rate, TR01, hemodialysis patients. The series is classed as in vivo, human.
Experimental: as §1, §2, §3
Series [5] is described as follows: Adverse event reporting of increased urine output, TR01, hemodialysis patients. The series is classed as in vivo, human. To be noted: dialysis patients in TR01; urine collection not performed. The source says:
Based on historical data, the dialysis patients in TR01 had limited to no residual renal function.

Series [6] is described as follows: Overall evaluation of aquaretic effect, TR01. The series is classed as in vivo, human.
Experimental: (§4) The presence and extent of a possible aquaretic effect was evaluated by measuring urine output (healthy subjects only) and serum sodium as well as blood pressure and heart rate, as markers of potential volume depletion. Urine specific gravity was also analyzed to assess for reduced urine osmolarity (resulting in a decrease in urine specific gravity) due to free water excretion.
For series [7] the following is noted: oral aqueous solution; fasted conditions, across studies.
Series [8] in a line: Blood pressure (diastolic and systolic), TR01, healthy subjects.
Experimental: as §1, §2, §3
Series [9] can be described thus: Blood pressure (diastolic and systolic), TR01, hemodialysis patients.
Experimental: as §1, §2, §3
A short description of series [10]: Urine output over 24 hours, Phase I trial TR01, healthy subjects (Cohort 2). To be noted: five 24-hour collections, progressively higher doses.
Experimental: as §4

For “17-(cyclobutylmethyl)-4,5α-epoxymorphinian-3,6α,14-triol, hydrochloride [nalbuphine]”, the “Hypernatremia during nalbuphine treatment” value is listed as “No healthy subject” in series [1] and “No healthy subject (Table 5) or hemodialysis patient” in series [2]. The “Trend of rising serum sodium during the treatment period” value in series [1] and in series [2] was “nor was there a trend of rising serum sodium” throughout. In addition, the “Dose or time-dependent mean heart rate increase” value in series [3] and in [4] was “no evidence of a dose or time-dependent mean heart rate increase” each time. In series [5], the “Adverse event of increased urine output” value was “no adverse event of increased urine output was reported”. Besides, the Aquaretic effect result is reported as “no evidence of an aquaretic effect” in series [6] (dialysis patients, doses up to 240 mg BID) and “no evidence of an aquaretic effect” in [6] (healthy subjects, doses up to 180 mg BID). The “Median Tmax” value in series [7] fell in the range of 30 to 60 min. Further, the “Systolic blood pressure range throughout the study” value in series [8] was 78-148 mmHg; in series [9] (dialysis patients), 70-199 mmHg. In addition, the “Dose-related reductions in blood pressure” value in [8] (Days −1 through 14) is “no consistent dose-related reductions in blood pressure”; in [9] (hemodialysis patients, Days −1 through 14 or 17) it was “no consistent dose-related reductions in blood pressure”. In addition, the Hypotension result in series [8] (throughout the study) is listed as “no subjects or patients developed hypotension”; in series [9] (hemodialysis patients, throughout the study) it was “no subjects or patients developed hypotension”. The “Increased urine output related to dose or duration of time on nalbuphine” value in [10] is “no evidence of increased urine output”.
